Here are results for 9 compounds from patent US10105357B2, “Indication of antibiotic drugs for preparation of cancer inhibition pharmaceutical composition” (LAUNX BIOMEDICAL CO., LTD., priority 2014, dated 2018).

Structures can show the parent of a compound that is named as a salt. Where two headings read alike, the source gives them in different places.

Holding throughout (assay type): cell-based, human
One assay has as its system cancer cell lines. Briefly: Cell viability analysis (WST-1) on cancer cell lines. The conditions noted are these: drug 10 μM, 72 hours, WST-1; Table 3.
Assay [1] concerns PC3 (p53−) (Prostate Adenocarcinoma). Briefly: Cell viability analysis, prostate cancer PC3. The conditions noted are these: Homo sapiens, 72 h.
Assay [2] concerns A375 (Amelanotic Melanoma). In words: Cell viability analysis, skin cancer A375. The settings on record: Homo sapiens, A-375, 72 h.
Assay [3] relates to A549 (Lung Adenocarcinoma). Briefly: Cell viability analysis, lung cancer A549. The conditions noted are these: Homo sapiens, A549, 72 h.
The subject of assay [4] is LoVo (Colorectal Adenocarcinoma). Briefly: Cell viability analysis, colon cancer LoVo. The conditions noted are these: Homo sapiens, LoVo, 72 h, read-out: cell viability (survival rate), LoVo, drug 10 μM, 72 hours, WST-1, OD450 nm.
The subject of assay [5] is HI650 (Lung Adenocarcinoma). In words: Cell viability analysis, lung cancer HI650. The conditions noted are these: Homo sapiens, NCI-H1650, 72 h.
For assay [6], the system named is HeLa (Cervix Adenocarcinoma). In words: Cell viability analysis, cervical cancer HeLa. The settings on record: Homo sapiens, HeLa, 72 h.
The subject of assay [7] is MCF7 (Mammary Gland, Adenocarcinoma). In words: Cell viability analysis, breast cancer MCF7. The settings on record: Homo sapiens, MCF7, 72 h.
In assay [8] the test system is TSGH-8301 (Urinary Bladder Carcinoma). In words: Cell viability analysis, bladder cancer TSGH-8301. The conditions noted are these: Homo sapiens, 72 h.
Assay [9] deals with HL-60 (Acute Promyelocytic Leukemia). Briefly: Cell viability analysis, leukemia HL-60. The settings on record: Homo sapiens, HL-60, 72 h.
The subject of assay [10] is HepG2 (Hepatocellular Carcinoma). In words: Cell viability analysis, hepatic cancer HepG2. The settings on record: Homo sapiens, HepG2, 72 h.
Assay [11] deals with MKN-45 (Gastric Adenocarcinoma). In words: Cell viability analysis, gastric cancer MKN-45. The settings on record: Homo sapiens, MKN-45, 72 h.
For assay [12], the system named is AGS (Gastric Adenocarcinoma). In words: Cell viability analysis, gastric cancer AGS. The conditions noted are these: Homo sapiens, 72 h.
[13] abbreviates: drug 10 μM, 72 hours, WST-1, OD450 nm, read-out: cell viability (survival rate), PC3.
Where [14] appears, read: drug 10 μM, 72 hours, WST-1, OD450 nm, read-out: cell viability (survival rate), A375.
The mark [15] stands for this setting: drug 10 μM, 72 hours, WST-1, OD450 nm, read-out: cell viability (survival rate), A549.
Setting [16] is: drug 10 μM, 72 hours, WST-1, OD450 nm, read-out: cell viability (survival rate), H1650.
Where [17] appears, read: drug 10 μM, 72 hours, WST-1, OD450 nm, read-out: cell viability (survival rate), HeLa.
The mark [18] stands for this setting: drug 10 μM, 72 hours, WST-1, OD450 nm, read-out: cell viability (survival rate), MCF7.
[19] abbreviates: drug 10 μM, 72 hours, WST-1, OD450 nm, read-out: cell viability (survival rate), TSGH.
Where [20] appears, read: drug 10 μM, 72 hours, WST-1, OD450 nm, read-out: cell viability (survival rate), HL-60.
The mark [21] stands for this setting: drug 10 μM, 72 hours, WST-1, OD450 nm, read-out: cell viability (survival rate), HepG2.
Where [22] appears, read: drug 10 μM, 72 hours, WST-1, OD450 nm, read-out: cell viability (survival rate), MKN-45.
[23] abbreviates: drug 10 μM, 72 hours, WST-1, OD450 nm, read-out: cell viability (survival rate), AGS.
Where [24] appears, read: read-out: cell viability (survival rate), PC3, drug 10 μM, 72 hours, WST-1, OD450 nm.
[25] abbreviates: read-out: cell viability (survival rate), A375, drug 10 μM, 72 hours, WST-1, OD450 nm.
Setting [26] is: read-out: cell viability (survival rate), A549, drug 10 μM, 72 hours, WST-1, OD450 nm.
[27] abbreviates: read-out: cell viability (survival rate), H1650, drug 10 μM, 72 hours, WST-1, OD450 nm.
[28] abbreviates: read-out: cell viability (survival rate), HeLa, drug 10 μM, 72 hours, WST-1, OD450 nm.
Setting [29] is: read-out: cell viability (survival rate), MCF7, drug 10 μM, 72 hours, WST-1, OD450 nm.
The mark [30] stands for this setting: read-out: cell viability (survival rate), TSGH, drug 10 μM, 72 hours, WST-1, OD450 nm.
The mark [31] stands for this setting: read-out: cell viability (survival rate), HL-60, drug 10 μM, 72 hours, WST-1, OD450 nm.
Setting [32] is: read-out: cell viability (survival rate), HepG2, drug 10 μM, 72 hours, WST-1, OD450 nm.
Setting [33] is: read-out: cell viability (survival rate), MKN-45, drug 10 μM, 72 hours, WST-1, OD450 nm.
The mark [34] stands for this setting: read-out: cell viability (survival rate), AGS, drug 10 μM, 72 hours, WST-1, OD450 nm.

`COc1ncnc(NS(=O)(=O)c2ccc(N)cc2)c1OC` [Sulfadoxine (Sulphadoxine), Sulfadoxine]: the “inhibition effect on different cancer cell lines” value in the assay with cancer cell lines was “significant inhibition effect”. Further, the viability at 10 µM in assay [1] (setting [13]) was 119%; in assay [2] (setting [14]), 65.5%; in assay [3] (setting [15]), 96.6%; in [4], 92.9%; in assay [5] (setting [16]), 62.2%; in assay [6] (setting [17]) it was 78.2%. The viability at 10 µM came out at 132% in assay [7] (setting [18]); 64.3% in assay [8] (setting [19]); 111% in [9] (setting [20]); 90.5% in [10] (setting [21]); 87.4% in [11] (setting [22]); 91.1% in assay [12] (setting [23]).

Regarding `C[C@@H]1CN(c2c(F)c(F)c3c(=O)c(C(=O)O)cn(C4CC4)c3c2F)C[C@H](C)N1` [Orbifloxacin], the “inhibition effect on different cancer cell lines” value in the assay with cancer cell lines is reported as “significant inhibition effect”. In addition, the viability at 10 µM in [1] (setting [13]) amounted to 51.1%; in [2] (setting [14]), 55.6%; in assay [3] (setting [15]), 44.2%; in assay [4], 75.4%; in assay [5] (setting [16]), 63.7%; in assay [6] (setting [17]), 66.8%. The viability at 10 µM came out at 33.3% in [7] (setting [18]); 44.3% in assay [8] (setting [19]); 92.3% in assay [9] (setting [20]); 84.2% in [10] (setting [21]); 44.1% in assay [11] (setting [22]); 84.5% in assay [12] (setting [23]).

`[H]/N=C(/N)N[C@H]1[C@H](O)[C@@H](O)[C@H](O[C@@H]2O[C@@H](C)[C@](O)(C=O)[C@H]2O[C@@H]2O[C@@H](CO)[C@H](O)[C@@H](O)[C@@H]2NC)[C@@H](N/C(N)=N\[H])[C@@H]1O` [Streptomycin sulfate]: in the assay with cancer cell lines, the “inhibition effect on different cancer cell lines” value was “significant inhibition effect”. Moreover, the viability at 10 µM amounted to 59.1% in assay [1] (setting [24]); 77.5% in [2] (setting [25]); 57.3% in [3] (setting [26]); 46.6% in [4]; 40.6% in assay [5] (setting [27]); 88.9% in assay [6] (setting [28]). Moreover, the viability at 10 µM was 72% in assay [7] (setting [29]); 23.3% in assay [8] (setting [30]); 93.3% in assay [9] (setting [31]); 84.5% in assay [10] (setting [32]); 68.7% in assay [11] (setting [33]); 65.5% in assay [12] (setting [34]).

For the compound `Cc1cccc(C(C)c2cnc[nH]2)c1C` (stereo not drawn) [Medetomidine HCl], in the assay with cancer cell lines, the “inhibition effect on different cancer cell lines” value is given as “significant inhibition effect”. The viability at 10 µM in assay [1] (setting [24]) is 65.6%; in [2] (setting [25]), 59.7%; in assay [3] (setting [26]), 73.7%; in assay [4], 79.4%; in assay [5] (setting [27]), 49.8%; in [6] (setting [28]) it was 78.4%. Further, the viability at 10 µM in assay [7] (setting [29]) came to 72.3%; in [8] (setting [30]), 104%; in [9] (setting [31]), 84.5%; in assay [10] (setting [32]), 91.9%; in assay [11] (setting [33]) it was 37.4%; in assay [12] (setting [34]) it was 108%.

In the case of `CCc1cc(C(N)=S)ccn1` [Ethionamide], the “inhibition effect on different cancer cell lines” value in the assay with cancer cell lines was “significant inhibition effect”. Besides, the viability at 10 µM in assay [1] (setting [24]) turned out to be 85.3%; in assay [2] (setting [25]) it was 76.6%; in [3] (setting [26]), 42.4%; in assay [4], 86.5%; in assay [5] (setting [27]), 78.3%; in [6] (setting [28]), 44.8%. Also, the viability at 10 µM worked out at 36.4% in assay [7] (setting [29]); 53.2% in [8] (setting [30]); 102% in assay [9] (setting [31]); 97.7% in assay [10] (setting [32]); 45.4% in assay [11] (setting [33]); 53.7% in assay [12] (setting [34]).

As for `C=C[C@]1(C)C[C@@H](OC(=O)CSC(C)(C)CNC(=O)[C@H](N)C(C)C)[C@]2(C)[C@H](C)CC[C@]3(CCC(=O)[C@H]32)[C@@H](C)[C@@H]1O` [Valnemulin HCl], the “inhibition effect on different cancer cell lines” value with cancer cell lines is listed as “significant inhibition effect”. In addition, the viability at 10 µM in assay [1] (setting [24]) was 83.4%; in [2] (setting [25]), 57.1%; in [3] (setting [26]), 62.2%; in assay [4], 73.6%; in assay [5] (setting [27]), 78.8%; in [6] (setting [28]), 117%. The viability at 10 µM in assay [7] (setting [29]) was 66.7%; in [8] (setting [30]), 66.9%; in assay [9] (setting [31]), 93.3%; in assay [10] (setting [32]) it was 126%; in [11] (setting [33]), 91.4%; in assay [12] (setting [34]) it was 75.5%.

On to `CC1(C)S[C@@H]2[C@H](NC(=O)C(C(=O)O)c3ccccc3)C(=O)N2[C@H]1C(=O)O` (stereo partly drawn) [Carbenicillin disodium], for which the “inhibition effect on different cancer cell lines” value in the assay with cancer cell lines is recorded as “significant inhibition effect”. The viability at 10 µM in assay [1] (setting [24]) is 84.4%; in assay [2] (setting [25]) it was 70.2%; in [3] (setting [26]), 53.5%; in assay [4], 86.2%; in [5] (setting [27]) it was 76.2%; in assay [6] (setting [28]) it was 77.8%. Moreover, the viability at 10 µM in [7] (setting [29]) was determined as 59%; in assay [8] (setting [30]), 84.3%; in assay [9] (setting [31]), 114%; in [10] (setting [32]), 88.9%; in assay [11] (setting [33]), 84.3%; in assay [12] (setting [34]), 62.9%.

As for `CC1=C(C(=O)O)N2C(=O)[C@@H](NC(=O)[C@H](N)c3ccccc3)[C@H]2SC1` [Cephalexin (Cefalexin), Cephalexin], the “inhibition effect on different cancer cell lines” value in the assay with cancer cell lines is on record as “significant inhibition effect”. Also, the viability at 10 µM in assay [1] (setting [24]) turned out to be 57.5%; in assay [2] (setting [25]), 92.7%; in assay [3] (setting [26]) it was 80.6%; in assay [4], 85.9%; in assay [5] (setting [27]), 71.2%; in [6] (setting [28]), 76.2%. Moreover, the viability at 10 µM in assay [7] (setting [29]) was determined as 96.1%; in assay [8] (setting [30]) it was 69.2%; in assay [9] (setting [31]), 95.2%; in [10] (setting [32]), 109%; in [11] (setting [33]), 94.9%; in assay [12] (setting [34]), 59.6%.

As to `Cc1cn([C@@H]2C[C@@H](O)[C@H](CO)O2)c(=O)[nH]c1=O` [Telbivudine (Sebivo, Tyzeka), Telbivudine], in the assay on cancer cell lines, the “inhibition effect on different cancer cell lines” value is recorded as “significant inhibition effect”. Besides, the viability at 10 µM was 53.6% in assay [1] (setting [24]); 57.5% in [2] (setting [25]); 43.7% in assay [3] (setting [26]); 65.3% in [4]; 67.5% in assay [5] (setting [27]); 51.9% in assay [6] (setting [28]). Further, the viability at 10 µM amounted to 31.9% in [7] (setting [29]); 50.4% in assay [8] (setting [30]); 100% in assay [9] (setting [31]); 94.4% in assay [10] (setting [32]); 36.2% in [11] (setting [33]); 27.5% in assay [12] (setting [34]).
